Results on 5 compounds are retold here after patent US20250353847A1, “CRYSTALLINE FORMS OF AN AKRIC3 DEPENDENT KARS INHIBITOR” (Novartis AG, priority 2022, published 2025).

Some results are limits rather than exact numbers.

What all share (type): physicochemical
The nature of data set [1]: Stability in 0.1% solutions or suspensions, 1 week 80° C. (pH stability study). On the set-up: key to CL color: A: No change of color; B: Slight discoloration; C: Medium discoloration; D: Strong discoloration; —: Test not performed; key to Suspension or clear solution after stress test: ↓: Suspension; *: Clear solution after stress test. To be noted: for Suspension or clear solution after stress test: 0.1%. As to the method: In a pH stability study, 0.1% suspension/solutions of the compound of Formula (I) in buffer solutions of various pHs were exposed to 80° C. for one week. The compound of Formula (I) degraded the most in pH 1 buffer, about 5%, whereas at high pH degradation was less than 1% after 1 week at 80° C.

A short description of data set [2]: Solid state bulk stability, 1 week 80° C. tight container and 80° C./75% RH. Particulars: for Bulk (XRPD) solid form after stress / DP[%] degradation products, Bulk (HPLC): Solid state.
The nature of data set [3]: Stability 1% in excipient mixtures, 2 weeks 50° C. The source says: (§1) Both solid forms of the Compound of Formula (I) are also stable in mixtures with excipients.
A short description of data set [4]: Xenon light stress (1200 kLuxh). Also noted: key to CL color: A: No change of color; B: Slight discoloration; C: Medium discoloration; D: Strong discoloration; —: Test not performed. Particulars: for Bulk (XRPD) solid form after stress / CL color / DP[%] degradation products, Bulk (HPLC): Xenon light (1200 kLuxh); for CL color: bulk.
Text: as §1

Data set [5] in a line: Hygroscopicity / water uptake. As to the method: The maximum water uptake of Form A is 0.6% at 95% relative humidity at 25° C. Form A is stable at water activity of aw=0.7 at 25° C.
Form A is an anhydrous crystalline form with a melting onset of about 208° C. and melting enthalpy of about 111-119 J/g.

The nature of data set [6]: Slurry experiments of Form A and Hydrate HA in media with different water activities. Particulars: 40° C. As to the method: Form A is stable at water activities of aw=0.7 and below, whereas the hydrate is stable at aw=0.9 and above. At 40° C. Form A is stable at water activities of aw=0.8 and below, whereas the hydrate is stable at aw>0.95.
A short description of data set [7]: Competitive slurry experiments and equilibration studies in solvents. Particulars: for Outcome of competitive slurry experiment with Form A: 25° C.
The nature of data set [8]: Solid form transformation / decomposition upon heating. As to the method:
DSC thermograms were recorded with a TA Discovery DSC instrument using heat flux compensation (TA Instruments, USA). The TA Discovery instrument was calibrated for temperature and enthalpy according to the manufacturer's instructions using certified reference substances like indium. About 2 mg of sample material was sealed in a standard pin-holed aluminum pan and heated in the DSC from 0° C. to 300° C., at a heating rate of 10° C./min. Dry nitrogen gas, at a flow rate of 50 ml/min was used to purge the DSC equipment during the measurement.
Thermogravimetric analysis was performed using a TA Discovery TGA instrument (TA Instruments, USA). About 2-10 mg of sample material was sealed in a standard aluminum pan with pierced lid and heated in the TGA from 30° C. to 250° C., at a heating rate of 10° C./min. Dry N2 gas, at a flow rate of 20 ml/min was used to purge the TGA equipment during the measurement.

Data set [9] in a line: Stability in 0.1% solutions or suspensions, 1 week 80° C. (pH stability study). On the set-up: key to CL color: A: No change of color; B: Slight discoloration; C: Medium discoloration; D: Strong discoloration; —: Test not performed; key to Suspension or clear solution after stress test: ↓: Suspension; *: Clear solution after stress test. Particulars: for CL color / DP[%] degradation products (HPLC area-%): 0.1% solution or suspension; for CL color / DP[%] degradation products (HPLC area-%) / Suspension or clear solution after stress test: 1 week 80° C.; for Suspension or clear solution after stress test: 0.1%.

Where [10] appears, read: 80° C. and 80° C. and 75% RH for one week.
[11] abbreviates: 1 week 80° C., tight container, listed as Modification A (NX-27).
Where [12] appears, read: listed as Modification A (NX-27).

Turning to `O=C1CC2(CCN(C(=O)NCc3ccc(F)cc3)CC2)Nc2ccc(F)cc21` [Form A, 6′-fluoro-N-(4-fluorobenzyl)-4′-oxo-3′,4′-dihydro-1′H-spiro[piperidine-4,2′-quinoline]-1-carboxamide], the “DP[%] degradation products (HPLC area-%)” value is 14.3% in data set [1] (0.1% solution or suspension, NMP); 1.2% in [9] (Acetonitrile); 56.8% in data set [9] (Dioxane); 16.6% in [9] (Ethanol); 7.6% in data set [9] (MEK); 1.2% in data set [9] (Water). The “DP[%] degradation products (HPLC area-%)” value in data set [9] (pH 1.0, 0.1N HCl) amounted to 5.6%; in [9] (pH 3.0, citrate buffer) it was 1.5%; in data set [9] (pH 4.7, acetate buffer), 1.4%; in data set [9] (pH 6.8, phosphate buffer) it was 1.2%; in data set [9] (pH 9.0, borate buffer) it was 1.1%. The CL color result in data set [1] (0.1% solution or suspension, pH 4.7, acetate buffer) is listed as “A”; in data set [4] (setting [12]) it was “B”; in [9] (Acetonitrile), “A”; in data set [9] (Dioxane) it was “A”; in data set [9] (Ethanol), “A”; in data set [9] (MEK), “A”. Also, the CL color entry in data set [9] (NMP) was “A”; in [9] (Water), “A”; in data set [9] (pH 1.0, 0.1N HCl), “A”; in data set [9] (pH 3.0, citrate buffer) it was “A”; in data set [9] (pH 6.8, phosphate buffer), “A”; in data set [9] (pH 9.0, borate buffer), “A”. In addition, the “Suspension or clear solution after stress test” value in data set [1] (Water) is listed as “↓”; in [1] (pH 1.0, 0.1N HCl), “↓”; in data set [1] (pH 3.0, citrate buffer), “↓”; in data set [1] (pH 6.8, phosphate buffer) it was “↓”; in data set [1] (pH 9.0, borate buffer), “↓”; in data set [9] (Acetonitrile), “*”. Moreover, the “Suspension or clear solution after stress test” value in [9] (Dioxane) is “*”; in data set [9] (Ethanol) it was “*”; in data set [9] (MEK), “*”; in data set [9] (NMP) it was “*”; in [9] (pH 4.7, acetate buffer), “↓”. The “Chemical stability in the bulk” value in [2] (setting [10]) was “chemically stable”. Besides, the “Bulk (XRPD) solid form after stress” value in data set [2] (setting [11]) was “No change”; in data set [2] (1 week 80° C./75% RH, listed as Modification A (NX-27)), “No change”; in [4], “No change”. Further, the “DP[%] degradation products, Bulk (HPLC)” value is reported as 0.6% in data set [2] (setting [11]), 0.7% in data set [2] (1 week 80° C./75% RH) and 1.2% in [4] (setting [12]). In addition, the “Physical stability in bulk” value in [2] (bulk) is recorded as “physically stable”. In addition, the “DP[%] degradation products” value is given as 0.4% in data set [3] (1% in mixture 1 (Dry Blend), 2 weeks 50° C., tight container, listed as Modification A (NX-27)); 0.4% in [3] (1% in mixture 1 (Dry Blend), 2 weeks 50° C./75% RH, listed as Modification A (NX-27)); 0.4% in data set [3] (1% in mixture 2 (Wet granulation), 2 weeks 50° C., tight container, listed as Modification A (NX-27)); 0.4% in [3] (1% in mixture 2 (Wet granulation), 2 weeks 50° C./75% RH, listed as Modification A (NX-27)); 0.4% in data set [3] (1% in mixture 3 (Roller compaction), 2 weeks 50° C., tight container, listed as Modification A (NX-27)); 0.4% in data set [3] (1% in mixture 3 (Roller compaction), 2 weeks 50° C./75% RH, listed as Modification A (NX-27)). For the same compound, in [4] (listed as Modification A), the “Increase in degradation products upon light stress” value came out at 0.6%. Also, the Hygroscopicity result in [5] is recorded as “slightly hygroscopic”. The same compound displayed a Maximum water uptake in data set [5] (95% relative humidity at 25° C.) of 0.6%. Also, in [6], the “Water activity (aw) at which the form is stable” value is given as at most 0.8. The “Crystal structure after slurrying (equilibration) for prolonged time” value in data set [7] (various solvents) is “preserves its crystal structure”. This compound yielded a Thermal decomposition temperature in [8] (TGA) of 240 °C.

For the compound `O=C1CC2(CCN(C(=O)NCc3ccc(F)cc3)CC2)Nc2ccc(F)cc21` [Form C, 6′-fluoro-N-(4-fluorobenzyl)-4′-oxo-3′,4′-dihydro-1′H-spiro[piperidine-4,2′-quinoline]-1-carboxamide], in data set [7], the “Outcome of competitive slurry experiment with Form A” value was “conversion of Form C into Form A”. Further, the “Transition temperature Form C / Form A (enantiotropic relationship)” value in [7] (based on competitive slurry experiments) is “below 25 °C”. Further, in [8], the “Temperature of transformation into Form A upon heating” value is “about 150 °C”.

As to `O=C1CC2(CCN(C(=O)NCc3ccc(F)cc3)CC2)Nc2ccc(F)cc21` [Form D, 6′-fluoro-N-(4-fluorobenzyl)-4′-oxo-3′,4′-dihydro-1′H-spiro[piperidine-4,2′-quinoline]-1-carboxamide], in data set [7], the “Outcome of competitive slurry experiment with Form A” value is recorded as “will convert into Form A”. In data set [8], the “Temperature of transformation into Form A upon heating” value is “above 190 °C”.

As to `O=C1CC2(CCN(C(=O)NCc3ccc(F)cc3)CC2)Nc2ccc(F)cc21` [amorphous, 6′-fluoro-N-(4-fluorobenzyl)-4′-oxo-3′,4′-dihydro-1′H-spiro[piperidine-4,2′-quinoline]-1-carboxamide], the “Chemical stability in the bulk” value in data set [2] (setting [10]) is recorded as “chemically stable”. In data set [2] (setting [10]), the “Solid form change of bulk under stress” value was “crystallized into the crystalline Modification A”. Moreover, the “Bulk (XRPD) solid form after stress” value in data set [2] (1 week 80° C., tight container) is “NX Mod A”; in [2] (1 week 80° C./75% RH), “NX Mod A”; in data set [4], “No change”. Moreover, the “DP[%] degradation products, Bulk (HPLC)” value in data set [2] (1 week 80° C., tight container) is 0.7%; in data set [2] (1 week 80° C./75% RH), 0.7%; in data set [4], 0.7%. For the same compound, the “DP[%] degradation products” value in data set [3] (1% in mixture 1 (Dry Blend), 2 weeks 50° C., tight container) is 0.8%; in data set [3] (1% in mixture 1 (Dry Blend), 2 weeks 50° C./75% RH) it was 0.8%; in data set [3] (1% in mixture 2 (Wet granulation), 2 weeks 50° C., tight container), 0.8%; in data set [3] (1% in mixture 2 (Wet granulation), 2 weeks 50° C./75% RH), 0.8%; in [3] (1% in mixture 3 (Roller compaction), 2 weeks 50° C., tight container), 0.8%; in data set [3] (1% in mixture 3 (Roller compaction), 2 weeks 50° C./75% RH), 0.8%. Besides, the CL color result in data set [4] is recorded as “A”. Besides, the “Increase in degradation products upon light stress” value in data set [4] (listed as amorphous form) was “no degradation was observed”.

Regarding `O=C1CC2(CCN(C(=O)NCc3ccc(F)cc3)CC2)Nc2ccc(F)cc21` [compound of Formula (I), 6′-fluoro-N-(4-fluorobenzyl)-4′-oxo-3′,4′-dihydro-1′H-spiro[piperidine-4,2′-quinoline]-1-carboxamide], the Degradation result is given as “less than 1%” in data set [9] (0.1% suspension/solution at high pH, 1 week at 80° C.) and “about 5%” in [9] (0.1% suspension/solution in pH 1 buffer, 80° C., one week).
